As a reminder, the pKd is the negative decadic logarithm of the Kd, by convention in mol/L.

One series addresses T1, PVR (Homo sapiens, UniProt P15151).
T1 construct: purchased ACRO Biosystem CD5-H82E3
T1 sequence (P15151 21-417): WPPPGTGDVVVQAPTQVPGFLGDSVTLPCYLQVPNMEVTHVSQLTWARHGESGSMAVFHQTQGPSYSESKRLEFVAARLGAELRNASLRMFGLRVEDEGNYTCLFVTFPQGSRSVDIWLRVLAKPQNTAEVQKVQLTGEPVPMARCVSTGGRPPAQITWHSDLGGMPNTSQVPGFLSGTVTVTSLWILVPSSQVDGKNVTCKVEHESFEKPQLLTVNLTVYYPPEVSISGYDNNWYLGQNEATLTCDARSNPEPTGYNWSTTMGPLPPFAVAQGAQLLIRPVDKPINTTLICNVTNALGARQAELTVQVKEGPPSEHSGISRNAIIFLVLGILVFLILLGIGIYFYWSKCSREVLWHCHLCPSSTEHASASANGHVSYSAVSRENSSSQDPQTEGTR
Nature of the series: Biolayer interferometry-based (BLI) binding assay. Particulars: for pKd: read-out: KD to PVR protein (BLI). The procedure: BLI experiments were performed in PBS supplemented with 0.1% (w/v) BSA, 0.002% (v/v) Tween 20 and 1% DMSO, with an Octet RED96 instrument (FortéBio), operating at 25 °C. The biotinylated PVR carrying a C-terminal AVITAG (CD5-H82E3, ACRO Biosystem) was loaded to saturation onto Super Streptavidin (SSA) biosensors (Pall/FortéBio), and blocked with 200 μL biotin (5 μg/mL) for 60 s. Before the assay, the PVR-labeled SSA sensors were pre-soaked in binding buffer for 30 min. The twenty-two small molecule compounds were preliminary screened for binding to PVR at a single concentration of 100 μM. […] The dissociation was monitored by washing the ligand biosensors from the analyte solution to binding buffer for 60 s. Double reference-subtracted sensorgrams were analyzed using Data Analysis 9.0 (Pall/Forte Bio), and binding responses at the end of the association phase were reported.
For orientation: BLI is a label-free optical method that tracks binding on a fibre tip over time.

The target in the next series is T2, human TIGIT/PVR (Homo sapiens, UniProt P15151).
T2 construct: purchased ACRO Biosystem CD5-H82F6; host or cells: PVR-Fc was purchased; TIGIT was expressed on CHO-K1 cells by lentiviral infection (CHOK1-hTIGIT)
T2 sequence (P15151 28-343 limits assumed): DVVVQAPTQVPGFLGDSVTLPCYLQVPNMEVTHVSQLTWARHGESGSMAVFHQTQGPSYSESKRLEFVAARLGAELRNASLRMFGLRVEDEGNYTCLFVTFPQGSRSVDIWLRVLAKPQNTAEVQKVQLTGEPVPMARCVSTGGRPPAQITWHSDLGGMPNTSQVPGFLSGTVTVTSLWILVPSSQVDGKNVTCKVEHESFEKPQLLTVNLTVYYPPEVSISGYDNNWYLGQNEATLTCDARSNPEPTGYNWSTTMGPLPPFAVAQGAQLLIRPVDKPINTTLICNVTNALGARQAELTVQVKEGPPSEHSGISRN
Put plainly: Cell based blocking assay, CHOK1-hTIGIT cells and human PVR-Fc. As to conditions: CHOK1-hTIGIT cells, highest concentration.

The next series has as its system MC38 cells. Put plainly: Cell viability assay (MTT). It is filed as cell-based, murine. Particulars: 12.5 to 100 μM, 3 days. The protocol: The cytotoxic effects of indicated compound on MC38 cells were determined by MTT assay. MC38 cells were seeded into 96-well plates at a density of 3000 cells/well and allowed to grow for adhesion. Cells were treated with medium with 1% DMSO as negative control or with a series dilution of indicated compound at a concentration range of 12.5 to 100 μM. Cell viability was ascertained using MTT reagent (Sigma) dissolved in 5 mg/mL PBS and incubated at 37 °C for 4 h in the following 3 days. Formazan crystals formed by viable cells were dissolved in 150 μL DMSO in each well. MTT reduction was quantified by measuring the absorbance at 490 nm.

In another series the test system is MC38 tumor. Put plainly: Anti-tumor experiment and ex vivo assays, MC38 tumor-bearing mice. It is filed as in vivo, C57BL/6 mice. The procedure:
All mice experimental procedures were approved by the Ethics Committee of Zhengzhou University. Six-week-old female C57BL/6 mice (Vital River Laboratories, China) were maintained in a specific pathogen-free facility. Food and water were supplied ad libitum. Mice were acclimatized for about 1 week before the experiment. C57BL/6 mice were subcutaneously (s.c.) injected on the right flank with 1 × 10^6 syngeneic MC38 cells in 200 μL PBS. One week later, tumor-bearing mice were randomized into groups of negative control (normal saline with 3% DMSO and 0.5% Tween-80), 0.5, 1.5, 5 and 15 mg/kg of compounds or anti-TIGIT and isotype control groups. Mice were treated with 200 μL control or indicated compound through intraperitoneal (i.p.) injection every other day for 2 weeks, or with 200 μg anti-TIGIT (clone:1G9, Bioxcell) or isotype control mouse IgG (I5381, Sigma) through i.p. injection every 3 days for 2 weeks. Tumor sizes were measured using a digital caliper, and tumor volumes were calculated as the formula: V=1/2×alength×bwidth×cheight
For indicated immune cell depletion models, MC38 mice were injected with 250 μg anti-CD4 (clone: GK1.5), 200 μg anti-CD8 (clone: YTS169.4) or matched rat IgG control (I4131, Sigma), 200 μg anti-NK1.1 (clone: PK136) or matched mouse IgG control (I5381, Sigma) the day before the start of tumor inoculation, as well as weekly thereafter, resulting in a total of 3 injections per mouse. The depletion efficacy was confirmed by flow cytometry analysis with the blood sample of mice treated with indicated antibodies for 6 days. Mouse anti-CD45 FITC (clone: 30-F11, eBioscience), anti CD3 PerCP-eFluor710 (clone: 17A2, eBioscience), anti-CD8α APC (clone: 53–6.7, eBioscience), anti-CD4 APC (clone: GK1.5, eBioscience) and anti-NK1.1 PE (clone: PK136, eBioscience) were used.
Upon completion of treatment, MC38 tumor-bearing mice were sacrificed, and the tumors were dissected and digested by 100 U/mL collagenase IV (Invitrogen) and 100 U/mL Dnase I (Sigma) for 60 min, and then filtered through a 70 μm nylon cell strainer to single cell suspension. The cells were incubated with mouse anti-CD45 FITC (clone: 30-F11, eBioscience), mouse anti-CD3 PerCP-eFluor710 (clone: 17A2, eBioscience), and mouse anti-CD8α APC (clone: 53–6.7, eBioscience) to detect the frequency of infiltrating CD8^+ T cells. For functional assay, the tumor-infiltrating lymphocytes were isolated from tumor cell suspension by discontinuous Percoll density gradients (40 and 70%) (GE Healthcare). The isolated tumor-infiltrating lymphocytes, splenocytes and draining lymph node cells prepared by gentle mechanical disruption were stimulated with or without 20 ng/mL phorbol 12-myristate 13-acetate (PMA, Sigma) and 1 μMionomycin (Sigma) in the presence of protein transport inhibitor for 4 h. The following procedure of intracellular cytokine staining assay was performed as mentioned above, and the antibodies for the staining were mouse anti-CD3 PerCP-eFluor710, mouse anti-CD8α PE, and mouse anti-IFN-γ APC (clone: XMG1.2, eBioscience).

A short description of series [1]: Potential side effects in mice. As to conditions: different concentrations administrated for at least one week. The class given is in vivo.

pKd: −log10 of the molar value.

Experimental for human TIGIT/PVR: Cell based blocking assay was performed according to the previous report [30]. […] Then the mixture of PVR protein and compounds were incubated with CHOK1-TIGIT cells for another 30 min, followed by incubation with detection antibody anti-human IgG-PE (eBioscience) for 30 min. Cells were then washed with FACS buffer to remove the unbound fluorescent antibodies, acquired on a FACS Caliber™ (BD Biosciences) and analyzed by FlowJo. […] Cells incubated with corresponding Fc tagged protein and anti-human IgG-PE served as positive control, while cells only incubated with anti-human Fc-PE served as negative control. The mean fluorescent intensity (MFI) was recorded for calculating the blocking efficiency as the formula: Blocking%=MFIof positive control−MFIof tested compounds/MFIof positive control×100%.

Turning to `O=C1/C(=C2\Nc3ccccc3C2=O)Nc2ccccc21` [SMC 2, Indigo], the “KD to PVR protein (BLI)” value at PVR (series of concentrations) is given as “could not fit a determined KD value”. Besides, on PVR (single concentration of 100 μM), the “BLI response, primary screening” value is “relatively good response”.
For the compound `COc1cc(/C=C/C(=O)CC(=O)/C=C/c2ccc(O)c(OC)c2)ccc1O` [SMC 6, Curcumin], at PVR (series of concentrations), the pKd was 4.38. The “blocking efficacy of TIGIT/PVR” value at human TIGIT/PVR amounted to 52%.
As for `N[C@@H](Cc1cc(I)c(Oc2ccc(O)c(I)c2)c(I)c1)C(=O)O` [SMC 14, Liothyronine], the “cell viability of MC38 cells (MTT)” value in the series on MC38 cells is “did not impact the cell viability”. Moreover, the “anti-tumor effects, MC38 tumor model” value with MC38 tumor (0.5 mg/kg i.p. every other day) is “almost no anti-tumor effects”; in the series on MC38 tumor (15 mg/kg compared with 5 mg/kg, i.p. every other day) it was “equivalent”. The “anti-tumor effects with CD4+, CD8+ T and NK cells depleted” value in the series on MC38 tumor (5 mg/kg, MC38 model, depletion antibodies) is “almost disappeared”. Besides, the MC38 tumor growth result in the series with MC38 tumor (high dose 5 mg/kg i.p. every other day) and in the series with MC38 tumor (low dose 1.5 mg/kg i.p. every other day) was “significantly inhibit” each time. Besides, in series [1], the “side effects on mental state, weight and diet of the mice” value is on record as “no obvious effects”.
As to `O=C(O[C@@H]1Cc2c(O)cc(O)cc2O[C@@H]1c1ccc(O)c(O)c1)c1cc(O)c(O)c(O)c1` [SMC 22, Epicatechin gallate], the pKd on PVR (series of concentrations) was 5.23. On human TIGIT/PVR, the “blocking efficacy of TIGIT/PVR” value is listed as “extremely low blocking efficacy”.

The values above are taken from paper PMC7487564 (Cell Communication and Signaling : CCS, 2020).
